We go through 2 compounds from patent publication US20120202756A1, “USE OF PRODRUGS TO AVOID GI MEDIATED ADVERSE EVENTS” (priority 2009, published 2012).

The target of series [1] is human acetylcholineesterase (Homo sapiens, UniProt P22303). The experiment in a line: Human acetylcholineesterase activity in vitro assay (CEREP). It is filed as biochemical.
Series [2] in a line: Bioavailability of donepezil from its prodrugs in the male beagle dog. Particulars: relative bioavailability of donepezil vs dosing donepezil itself, male dogs. The source says: (§1) Subsequent pharmacokinetic analysis was then undertaken using Win NonLin to generate the relevant PK parameters including Cmax, Tmax and AUC and T1/2.
Series [3] is described as follows: Bioavailability of donepezil from its prodrugs in the cynomolgus monkey. The settings on record: relative bioavailability of donepezil vs dosing donepezil itself, male monkeys.
Description: as §1

A short description of series [4]: Stability in simulated intestinal juice (FeSSIF). The class given is in vitro ADME. Particulars: FeSSIF pH 5.0, pancreatin 1%. The procedure:
(§2) To avoid direct interaction between the active drug and the gut microfloral population, the prodrug should not undergo premature chemical or enzymic cleavage back to the parent dug while within the gut lumen. To confirm this the prodrugs were incubated with USP SGF (simulated gastric fluid), FeSSIF (fed state simulated intestinal fluid) and FaSSIF (fasted state simulated intestinal fluid) and remaining prodrug and any generated active drug assayed by use of a qualified LC-MS/MS analytical method.
Pancreatin was again added at 1%.
(§3) To minimize the direct inhibitory action of this drug on gastric emptying/gut motility—and resultant nausea—the prodrug should not undergo premature chemical or enzymic cleavage back to the parent drug while within the gut lumen. To confirm this, the prodrugs were incubated with USP SGF (simulated gastric fluid), FeSSIF (fed state simulated intestinal fluid) and FaSSIF (fasted state simulated intestinal fluid) and remaining prodrug, and any generated active drug, assayed by use of a qualified LC-MS/MS analytical method.
(§4) To avoid direct interaction between the active drug and the gut, the prodrug should not undergo premature chemical or enzymic cleavage back to the parent dug while within the gut lumen. To confirm this the prodrugs were incubated with USP SGF (simulated gastric fluid), FeSSIF (fed state simulated intestinal fluid) and FaSSIF (fasted state simulated intestinal fluid) and remaining prodrug and any generated active drug assayed by use of a qualified LC-MS/MS analytical method.

The nature of series [5]: Stability in USP simulated gastric juice. It is filed as in vitro ADME. Particulars: USP SGF pH 1.1, pepsin […], prodrug 20 μg/mL. The source says: To minimize the direct inhibitory action of this drug on gastric emptying/gut motility—and resultant nausea—the prodrug should not undergo premature chemical or enzymic cleavage back to the parent drug while within the gut lumen.

The nature of series [6]: Stability in simulated intestinal juice (FaSSIF). The class given is in vitro ADME. Particulars: FaSSIF pH 6.5, pancreatin 1%, prodrug 20 μg/mL. As to the method:
as §2
Method—Prodrug (20 μg/mL) in the FaSSIF cocktail comprising sodium taurocholate 3 mM, lecithin 0.75 mM, NaOH 8.7 mM, NaH2PO4. H2O 28.7 mM, NaCl 106 mM, pancreatin 1% (overall pH 6.5) was incubated for 2 h at 37° C. After acidifying the incubation to stop any reaction the amount of prodrug remaining and drug generated were determined using a qualified LC-MS/MS method.
as §3
Prodrug (20 μg/mL) in the FaSSIF cocktail comprising sodium taurocholate 3 mM, lecithin 0.75 mM, NaOH 8.7 mM, NaH2PO4. H2O 28.7 mM, NaCl 106 mM, pancreatin 1% (overall pH 6.5) was incubated for 2 h at 37° C. After acidifying the incubation to stop any reaction the amount of prodrug remaining and drug generated were determined using a qualified LC-MS/MS method.
as §4

Several values for one entry are separate records, joined by “and”; a condition that tells them apart may be missing. Equal values may be shown once. Bounds are passed on as bounds.

Sequence of human acetylcholineesterase (P22303 32-614): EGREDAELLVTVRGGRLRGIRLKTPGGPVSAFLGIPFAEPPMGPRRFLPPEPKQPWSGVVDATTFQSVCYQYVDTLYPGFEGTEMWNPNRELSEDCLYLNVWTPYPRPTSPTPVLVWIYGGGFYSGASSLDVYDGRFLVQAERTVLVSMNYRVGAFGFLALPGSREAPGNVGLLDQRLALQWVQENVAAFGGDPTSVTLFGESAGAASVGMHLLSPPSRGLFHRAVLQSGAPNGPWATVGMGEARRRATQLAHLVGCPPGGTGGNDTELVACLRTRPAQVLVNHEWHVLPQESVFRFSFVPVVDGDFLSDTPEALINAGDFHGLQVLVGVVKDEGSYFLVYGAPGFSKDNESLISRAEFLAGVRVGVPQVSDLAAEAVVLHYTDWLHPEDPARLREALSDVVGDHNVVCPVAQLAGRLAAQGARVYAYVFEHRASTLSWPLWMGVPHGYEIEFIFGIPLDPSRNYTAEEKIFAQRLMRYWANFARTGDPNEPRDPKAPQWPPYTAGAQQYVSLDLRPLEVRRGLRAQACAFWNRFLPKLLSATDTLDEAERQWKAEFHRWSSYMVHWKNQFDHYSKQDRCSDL

In turn, `COc1cc2c(cc1OC)C(OC(=O)CCCC(=O)O)=C(CC1CCN(Cc3ccccc3)CC1)C2` [Donepezil glutaryl enol ester, Donepezil-(Glutaryl) enol ester] registered an IC50 in series [1] of 830 nM.

In the case of `COc1cc2c(cc1OC)C(OC(=O)CCCC(=O)N[C@H](C(N)=O)C(C)C)=C(CC1CCN(Cc3ccccc3)CC1)C2` [Donepezil glutaryl valinamide, donepezil[glutaryl-(S)-valinamide]enol ester], the Frel was 85% and 25% and 62% and 44% and 28% in series [2] (individual animals); 49% in series [2] (mean); 97% and 44% and 99% and 64% and 89% in series [3] (individual animals); 79% in series [3] (mean). In series [4], the “Simulated intestinal juice (2 h, 37° C.) (FeSSIF) % active drug generated” value is listed as <2.0%. Also, the “Simulated gastric juice (1 h, 37° C.) % active drug generated” value in series [5] was <2.0%. In addition, the “Simulated intestinal juice (2 h, 37° C.) (FaSSIF) % active drug generated” value in series [6] is on record as <2.0%.

Usually IC50 stands for the concentration that inhibits the measured activity by half.
